Patent US10131679B2, “Substituted dihydropyrrolopyrazole compound” (UBE INDUSTRIES, LTD., priority 2014, dated 2018)

Columns and labels:
[1] = tested on: IL-6 production in rat adjuvant arthritis model; assay: IL-6 production inhibition test in rat adjuvant arthritis model; assay type: in vivo, LEW rats; conditions: single dose, left ankle, read-out: rate of inhibition of IL-6 production; for inhibition in vivo at 3 mg/kg: administration of 3 mg/kg
Experimental: IL-6 Production Inhibition Test in Rat Adjuvant Arthritis Model
A single-dose drug efficacy test using rat adjuvant arthritis models was carried out by modifying the method of Magari. K et al. (J. Rheumatol. 30 (10), 2193 (2003)).
LEW rats (female, supplied by Charles River Laboratories Japan, Inc.) were used as laboratory animals. An adjuvant prepared from heat-killed bacteria of Mycobacterium butyricum (264010 manufactured by Difco Laboratories Ltd.) and liquid paraffin (manufactured by Wako Pure Chemical Industries, Ltd., Code No. 128-04375) was subcutaneously administered as a phlogogenic material to the right hind leg footpads of the rats under inhalation anesthesia with isoflurane (manufactured by Wako Pure Chemical Industries, Ltd., Code No. 099-06571) to prepare arthritis models. Approximately 2 weeks later, left paw edema was measured with a paw volume meter (model TK-101CMP manufactured by Unicorn Co., Ltd.), and grouping was performed such that the average volume of left paw edema was equal among groups. A test compound or only a solvent was administered, after a certain time, they were sacrificed by exsanguination from the abdomens under isoflurane anesthesia, and the left ankles were collected, chopped, and frozen by using liquid nitrogen. The collected left ankle portions were disrupted in CRYOPress (model CP-100WP manufactured by Microtec Co., Ltd.), then supplemented with a buffer solution, shaken overnight at 4° C., and then centrifuged to collected a supernatant. The preparation of the buffer solution was performed by mixing a Tris buffer solution (pH 7.4), sodium chloride (NaCl), phenyl methyl sulfonyl fluoride (PMSF), Triton X-100, EDTA-free complete tablets (manufactured by F. Hoffmann-La Roche, Ltd., REF. 11 873 580 001), and Otsuka distilled water (manufactured by Otsuka Pharmaceutical Co., Ltd., product No. 1323). IL-6 in the collected supernatant was measured by using a sandwich ELISA kit (manufactured by R&D Systems, Inc., Catalog No. S6050).
The IL-6 content of each sample was calculated from the calibration curve of Standard IL-6 included in the kit. When the amount of IL-6 produced in the solvent administration control group was defined as 100%, the rate of inhibition of IL-6 production (%) at each dose of the test compound was calculated.

[2] = tested on: human breast cancer cell line (MCF-7); assay: Human breast cancer (MCF-7) cell growth inhibition test; assay type: cell-based; conditions: MCF7, 72 h, MCF-7, culture for 3 days, sulforhodamine B absorbance
Experimental: Human Breast Cancer (MCF-7) Cell Growth Inhibition Test
The measurement of a human breast cancer cell growth inhibitory effect was carried out by modifying the method of Simak et al. (Cancer Research, 69, 6208 (2009)).
A human breast cancer cell line (MCF-7) manufactured by DS Pharma Biomedical Co., Ltd., Cat. No. EC86012803, was cultured in MEM (manufactured by GIBCO/Thermo Fisher Scientific, Inc., REF. 11095-080) medium containing 10% FBS (manufactured by GIBCO/Thermo Fisher Scientific, Inc., REF. 10082-147), nonessential amino acids (manufactured by GIBCO/Thermo Fisher Scientific, Inc., REF. 11140-050), and 1% penicillin/streptomycin/amphotericin B (manufactured by GIBCO/Thermo Fisher Scientific, Inc., REF. 15240-096) and inoculated at 3.0×10^3 cells/well to a 96-well plate (manufactured by Corning Inc., REF. 353072). After overnight culture in a carbon dioxide incubator, it was replaced with a fresh MEM medium containing 10% FBS, nonessential amino acids, and 1% penicillin/streptomycin/amphotericin B on the next day, and a test compound dissolved in DMSO (manufactured by Wako Pure Chemical Industries, Ltd., Code No. 043-07216) (final DMSO concentration: 0.1%) was added and left standing in a carbon dioxide incubator. After culture for 3 days, the absorbance of each well was measured by using In Vitro Toxicology Assay Kit Sulforhodamine B based (manufactured by Sigma-Aldrich Co. LLC., Pcode 1001910706).
The rate of inhibition of cell growth at each concentration was calculated from the test compound concentration and the absorbance of sulforhodamine B, and the concentration of the test compound necessary for inhibiting 50% of cell growth (IC50 value) was calculated by using EXSUS (version 8.0.0 or version 8.0.1, manufactured by CAC Exicare Corp.).

[3] = tested on: Human keratinocytes (NHEK-Neo Pooled); assay: Human keratinocyte growth inhibition assay; assay type: cell-based; conditions: 48 h, culture for 2 days, Cell Counting Kit-8
Summary of the method: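 Neonatal pooled NHEK were seeded at 2.0×10^3 cells/well, cultured overnight, then exposed to compound in 0.1% final DMSO for 2 days. Growth was read by CCK-8 absorbance. IC50 was calculated from the concentration–inhibition data.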

`COC[C@@H](NC(=O)N1Cc2c(NC(=O)C3([Si](C)(C)C)CCC3)n[nH]c2C1(C)C)c1ccccc1` [IV-123, (S)—N-(2-Methoxy-1-phenylethyl)-6,6-dimethyl-3-[1-(trimethylsilyl)cyclobutanecarboxamido]-4,6-dihydropyrrolo[3,4-c]pyrazole-5(1H)-carboxamide] was tested. Which inhibition in vivo at 3 mg/kg [1] did it give?
The inhibition in vivo at 3 mg/kg was at least 50%.

What about the IC50 [2] of the same molecule?
Its IC50 is at most 500 nM.

And the IC50 [3]?
The IC50 was at most 500 nM.

With `CC(C)(O)[C@@H](NC(=O)N1Cc2c(NC(=O)C3([Si](C)(C)C)CCC3)n[nH]c2C1(C)C)c1ccccc1` [IV-171, (S)—N-(2-Hydroxy-2-methyl-1-phenylpropyl)-6,6-dimethyl-3-[1-(trimethylsilyl)cyclobutanecarboxamido]-4,6-dihydropyrrolo[3,4-c]pyrazole-5(1H)-carboxamide] as the molecule, how does the inhibition in vivo at 10 mg/kg ([1]; administration of 10 mg/kg) read?
The inhibition in vivo at 10 mg/kg was at least 50%.

And the IC50 [2]?
Its IC50 is at most 500 nM.

What about the IC50 [3] of the same molecule?
Its IC50 is at most 500 nM.

Which results are given for `CC1(C)c2[nH]nc(NC(=O)C3([Si](C)(C)C)CCC3)c2CN1C(=O)N[C@H](CCO)c1ccccc1` [IV-227, (R)—N-(3-Hydroxy-1-phenylpropyl)-6,6-dimethyl-3-[1-(trimethylsilyl)cyclobutanecarboxamido]-4,6-dihydropyrrolo[3,4-c]pyrazole-5(1H)-carboxamide]?
inhibition in vivo at 3 mg/kg [1]: ≥ 50%; IC50 [2]: ≤ 500 nM; IC50 [3]: ≤ 500 nM

`CC(C)(O)C[C@@H](NC(=O)N1Cc2c(NC(=O)C3([Si](C)(C)C)CCC3)n[nH]c2C1(C)C)c1ccccc1` [IV-299, (R)—N-(3-Hydroxy-3-methyl-1-phenylbutyl)-6,6-dimethyl-3-[1-(trimethylsilyl)cyclobutanecarboxamido]-4,6-dihydropyrrolo[3,4-c]pyrazole-5(1H)-carboxamide] was tested. Which inhibition in vivo at 3 mg/kg [1] did it give?
Its inhibition in vivo at 3 mg/kg is at least 50%.

What about the IC50 [3] of the same molecule?
Its IC50 is at most 500 nM.
